Laboratory results as given in US20070053062A1, “Optical part and projection type display apparatus using same” (priority 2005, published 2007).

Experiments:
mildews [1] = experiment: Mildew proofness of the lenses left to stand in thermo-hygrostat after dipping in hot water; assay type: cell-based; parameters: key to Growing of mildew: ∘: Growing of mildews was not recognized by visual inspection and inspection with a 5x magnifier.; Growing of mildews was not recognized by visual inspection, but recognized by inspection with a 5x magnifier.; xx: Growing of mildews was recognized by both the visual inspection and the inspection with a 5x magnifier; conditions: lens dipped in hot water at 40° C. for 1 hour; for Growing of mildew: then 1 week in thermo-hygrostat of 40° C. and 95% RH, visual inspection and 5× magnifier; for Growing of mildews (in words): then 1 week at 40° C. and 95% RH
Experimental: Then, the lenses having the anti-reflecting membrane containing the mildew proofing agent were dipped in hot water at 40° C. for 1 hour and thereafter were left to stand for 1 week in a thermo-hygrostat of 40° C. and 95% RH. After lapse of 1 week, it was examined by visual inspection and inspection with a 5× magnifier whether mildews grew or not.
In compounds 13, 16, 18 and 20, the elemental proportion of nitrogen was 6% by weight or more.

mildews [2] = experiment: Mildew proofness of lenses with anti-reflecting membrane containing mildew proofing agent, left to stand in thermo-hygrostat; assay type: cell-based; parameters: key: ∘: Growing of mildews was not recognized by visual inspection and inspection with a 5x magnifier.; Growing of mildews was not recognized by visual inspection, but recognized by inspection with a 5x magnifier.; xx: Growing of mildews was recognized by both the visual inspection and the inspection with a 5x magnifier; conditions: acrylic resin lens, anti-reflecting membrane containing the agent; 1 week in thermo-hygrostat of 40° C. and 95% RH; visual inspection and 5× magnifier
Experimental: Anti-reflecting paints containing the mildew proofing agentwere prepared by mixing a silica sol solution as a binder (containing 2-propanol as a main solvent and 10% by weight of an alkoxysilane polymer) (2 parts by weight), a 5 wt % dispersion of silicon dioxide having an average length of major axis of about 60 nm as inorganic oxide particles (35 parts by weight), 2-propanol (100 parts by weight), and a 2 wt % 2-propanol solution of the mildew proofing agent (2 parts by weight). Here, 2-propanol was used as the solvent because most of the mildew proofing agents only partially dissolve in water.
Next, the same lens of acrylic resin as used in Example 1 as one of the optical parts of the present invention was cleaned in the same manner as in Example 1, and thereafter the lens was coated with the anti-reflecting paint containing the mildew proofing agent in place of the anti-reflecting paint used in Example 1, followed by heating the coat. In this case, the anti-reflecting paint was also coated on the back surface of the lens as in Example 1. Thus, a lens having an anti-reflecting membrane containing the mildew proofing agent was produced.
Next, in order to confirm whether these lenses had mildew proofness or not, these lenses were left to stand for 1 week in a thermo-hygrostat of 40° C. and 95% RH. For comparison, the lens having the anti-reflecting membrane containing no mildew proofing agent was also left to stand together. After 1 week, it was confirmed by visual inspection and inspection with a 5× magnifier whether mildews grew or not.

Row | Compound | Growing of mildew (mildews [1]) | Growing of mildew (mildews [2]) | Growing of mildews (in words) (mildews [1])
1 | CCCCCCCCCC[n+]1ccccc1 [Compound 14] | ∘ | ∘ | 
2 | CCCCCCCC[n+]1ccccc1 [Compound 13] | x | ∘ | Growing of a few mildews was seen
3 | CC(C)(C)OC(=O)Nc1ccc(I)cc1 [Compound 28] |  | ∘ | 
4 | CCCCCC[n+]1ccccc1 [Compound 17] | ∘ | ∘ | 
5 | O=C(Nc1ccc(Cl)cc1)Oc1ccccc1 [Compound 29] |  | ∘ | 
6 | C[n+]1ccccc1 [Compound 18] | x | ∘ | Growing of a few mildews was seen
7 | CCCC[n+]1ccccc1 [Compound 16] | x | ∘ | Growing of a few mildews was seen
8 | CC(C)(C)OC(=O)Nc1ccc(Cl)cc1 [Compound 27] |  | ∘ | 
